Measurements: ChEMBL document CHEMBL6182828, “Medicinal chemistry-based perspectives on thiophene and its derivatives: exploring structural insights to discover plausible druggable leads” (RSC Med Chem, 2025)

Assays:
PC-3 = assay: cells; conditions: Homo sapiens
Description: Cytotoxicity against human PC-3 cells assessed as reduction in cell viability by MTT assay

MDA-MB-231 = assay: cells; conditions: Homo sapiens
Description: Cytotoxicity against human MDA-MB-231 cells assessed as reduction in cell viability by MTT assay

A549 = assay: cells; conditions: Homo sapiens
Description: Cytotoxicity against human A549 cells assessed as reduction in cell viability by MTT assay

[1] = Elimination half life in human at 5 mg/kg, po; type: ADME, organism-based; conditions: in vivo, read-out: LambdaZ (converted)
[2] = molecular target: T1, Polyunsaturated fatty acid 5-lipoxygenase (Homo sapiens, UniProt P09917); assay: Inhibition of 5-LOX (unknown origin)
T1 sequence (P09917 whole entry): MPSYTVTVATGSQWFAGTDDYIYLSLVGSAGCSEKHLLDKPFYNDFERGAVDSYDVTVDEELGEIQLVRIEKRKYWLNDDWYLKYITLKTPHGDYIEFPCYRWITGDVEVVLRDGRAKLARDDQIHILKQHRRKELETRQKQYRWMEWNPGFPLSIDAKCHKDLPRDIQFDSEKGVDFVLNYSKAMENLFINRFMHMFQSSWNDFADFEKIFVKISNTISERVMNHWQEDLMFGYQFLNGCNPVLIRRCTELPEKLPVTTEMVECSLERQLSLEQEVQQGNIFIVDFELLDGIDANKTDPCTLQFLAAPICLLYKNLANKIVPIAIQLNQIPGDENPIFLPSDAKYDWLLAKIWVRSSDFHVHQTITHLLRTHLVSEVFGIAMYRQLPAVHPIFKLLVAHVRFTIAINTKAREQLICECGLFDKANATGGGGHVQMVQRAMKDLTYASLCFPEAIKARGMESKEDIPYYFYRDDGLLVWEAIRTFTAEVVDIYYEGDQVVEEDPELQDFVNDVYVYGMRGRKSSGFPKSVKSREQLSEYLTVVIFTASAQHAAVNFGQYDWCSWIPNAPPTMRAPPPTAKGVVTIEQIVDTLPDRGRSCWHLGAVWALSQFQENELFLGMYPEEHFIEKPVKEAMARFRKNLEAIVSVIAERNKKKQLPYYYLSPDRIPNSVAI

Bacillus subtilis [3] = assay: Antibacterial activity against Bacillus subtilis ATCC 6633 assessed as zone of inhibition; type: functional
Staphylococcus aureus = assay: Antibacterial activity against Staphylococcus aureus ATCC 25923 assessed as zone of inhibition; type: functional
Acetylcholinesterase = Acetylcholinesterase (Homo sapiens, UniProt P22303); assay: Inhibition of AChE (unknown origin) by Ellman's method
Sequence of Acetylcholinesterase (P22303 whole entry): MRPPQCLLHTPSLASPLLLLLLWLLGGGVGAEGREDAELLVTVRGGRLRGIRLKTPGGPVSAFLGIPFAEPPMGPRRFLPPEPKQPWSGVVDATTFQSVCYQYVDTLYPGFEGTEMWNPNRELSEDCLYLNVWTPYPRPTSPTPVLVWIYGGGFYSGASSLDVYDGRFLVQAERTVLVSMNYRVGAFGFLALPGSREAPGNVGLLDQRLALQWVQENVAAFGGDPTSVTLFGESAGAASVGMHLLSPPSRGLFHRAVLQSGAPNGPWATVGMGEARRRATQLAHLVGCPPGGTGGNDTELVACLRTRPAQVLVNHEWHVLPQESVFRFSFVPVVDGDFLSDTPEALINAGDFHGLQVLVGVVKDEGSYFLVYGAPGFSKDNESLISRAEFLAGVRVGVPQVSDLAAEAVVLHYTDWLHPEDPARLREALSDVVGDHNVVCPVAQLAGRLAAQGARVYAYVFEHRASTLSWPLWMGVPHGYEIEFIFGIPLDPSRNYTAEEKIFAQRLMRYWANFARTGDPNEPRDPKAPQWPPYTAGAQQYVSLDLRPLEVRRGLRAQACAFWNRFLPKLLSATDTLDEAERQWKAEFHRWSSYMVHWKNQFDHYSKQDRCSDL

[4] = molecular target: Vascular endothelial growth factor receptor 2 (Homo sapiens, UniProt P35968); assay: Inhibition of VEGFR2 (unknown origin)
Sequence of Vascular endothelial growth factor receptor 2 (P35968 whole entry): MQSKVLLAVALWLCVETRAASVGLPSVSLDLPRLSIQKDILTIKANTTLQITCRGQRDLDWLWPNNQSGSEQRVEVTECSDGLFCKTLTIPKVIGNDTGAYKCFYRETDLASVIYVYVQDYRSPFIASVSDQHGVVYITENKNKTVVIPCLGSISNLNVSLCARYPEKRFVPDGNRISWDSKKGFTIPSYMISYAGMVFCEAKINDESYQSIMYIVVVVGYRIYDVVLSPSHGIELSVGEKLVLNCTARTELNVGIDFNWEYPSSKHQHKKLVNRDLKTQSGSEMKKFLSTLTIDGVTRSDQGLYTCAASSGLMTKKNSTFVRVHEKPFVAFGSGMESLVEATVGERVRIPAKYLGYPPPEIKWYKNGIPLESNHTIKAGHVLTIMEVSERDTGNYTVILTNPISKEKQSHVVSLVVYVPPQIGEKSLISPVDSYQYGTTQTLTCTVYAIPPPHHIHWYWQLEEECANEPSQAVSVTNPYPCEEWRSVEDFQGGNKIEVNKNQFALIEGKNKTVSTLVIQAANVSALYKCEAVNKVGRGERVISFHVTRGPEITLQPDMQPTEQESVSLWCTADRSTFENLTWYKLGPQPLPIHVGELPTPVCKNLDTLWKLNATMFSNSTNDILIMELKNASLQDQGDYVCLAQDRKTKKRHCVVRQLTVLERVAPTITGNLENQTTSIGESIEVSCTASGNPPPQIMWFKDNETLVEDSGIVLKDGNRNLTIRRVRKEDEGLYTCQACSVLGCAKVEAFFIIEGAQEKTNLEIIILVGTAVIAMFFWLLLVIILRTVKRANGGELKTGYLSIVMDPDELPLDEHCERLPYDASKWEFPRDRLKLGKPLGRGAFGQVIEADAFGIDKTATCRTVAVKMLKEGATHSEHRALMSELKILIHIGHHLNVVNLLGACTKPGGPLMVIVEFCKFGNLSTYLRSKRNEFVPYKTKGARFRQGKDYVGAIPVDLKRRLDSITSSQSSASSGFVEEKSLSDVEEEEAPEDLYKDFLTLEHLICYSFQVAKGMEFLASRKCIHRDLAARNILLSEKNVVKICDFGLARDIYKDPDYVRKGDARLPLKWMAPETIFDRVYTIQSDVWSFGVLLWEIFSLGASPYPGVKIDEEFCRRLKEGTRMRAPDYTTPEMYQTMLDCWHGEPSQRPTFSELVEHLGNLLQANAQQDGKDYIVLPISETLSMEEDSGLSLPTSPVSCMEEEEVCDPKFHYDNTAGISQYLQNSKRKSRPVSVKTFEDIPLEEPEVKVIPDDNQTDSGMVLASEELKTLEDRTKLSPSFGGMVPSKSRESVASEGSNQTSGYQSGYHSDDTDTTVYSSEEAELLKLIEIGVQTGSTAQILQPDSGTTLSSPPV

[5] = molecular target: Epidermal growth factor receptor (Homo sapiens, UniProt P00533); assay: Inhibition of EGFR (unknown origin)
Sequence of Epidermal growth factor receptor (P00533 whole entry): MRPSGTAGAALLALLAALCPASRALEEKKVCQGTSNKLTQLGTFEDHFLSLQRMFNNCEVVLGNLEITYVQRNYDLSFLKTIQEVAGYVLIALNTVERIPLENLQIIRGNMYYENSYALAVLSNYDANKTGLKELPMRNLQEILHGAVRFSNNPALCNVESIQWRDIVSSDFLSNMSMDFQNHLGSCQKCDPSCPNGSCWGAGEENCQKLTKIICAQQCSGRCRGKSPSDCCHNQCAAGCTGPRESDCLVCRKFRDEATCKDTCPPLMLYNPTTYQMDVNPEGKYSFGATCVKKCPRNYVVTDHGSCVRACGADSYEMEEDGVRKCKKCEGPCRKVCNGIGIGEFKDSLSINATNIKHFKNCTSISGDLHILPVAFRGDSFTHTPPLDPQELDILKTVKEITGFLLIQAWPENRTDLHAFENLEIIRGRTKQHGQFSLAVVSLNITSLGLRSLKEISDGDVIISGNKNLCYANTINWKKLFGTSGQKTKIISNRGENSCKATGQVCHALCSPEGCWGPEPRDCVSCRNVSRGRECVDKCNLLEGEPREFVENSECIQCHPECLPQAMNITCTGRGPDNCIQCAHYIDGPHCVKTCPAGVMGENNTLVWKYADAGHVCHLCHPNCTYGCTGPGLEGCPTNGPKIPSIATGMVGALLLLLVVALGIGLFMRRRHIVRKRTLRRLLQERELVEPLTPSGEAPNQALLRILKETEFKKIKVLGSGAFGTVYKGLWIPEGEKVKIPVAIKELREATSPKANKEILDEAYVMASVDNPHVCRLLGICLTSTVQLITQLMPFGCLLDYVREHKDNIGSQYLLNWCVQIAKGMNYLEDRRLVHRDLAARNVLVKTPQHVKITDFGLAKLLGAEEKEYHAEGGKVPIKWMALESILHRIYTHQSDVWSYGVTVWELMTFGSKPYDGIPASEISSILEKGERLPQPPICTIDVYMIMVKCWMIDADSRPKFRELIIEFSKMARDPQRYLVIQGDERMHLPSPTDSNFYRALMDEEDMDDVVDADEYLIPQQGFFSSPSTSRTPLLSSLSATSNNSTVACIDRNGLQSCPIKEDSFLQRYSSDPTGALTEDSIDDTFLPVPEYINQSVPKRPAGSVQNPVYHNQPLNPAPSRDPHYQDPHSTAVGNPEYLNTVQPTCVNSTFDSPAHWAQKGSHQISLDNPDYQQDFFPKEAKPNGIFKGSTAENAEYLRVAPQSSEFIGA

[6] = Half life in po dosed human; type: ADME, organism-based; conditions: in vivo
NCI-H460 = assay: Growth inhibition of human NCI-H460 cells incubated for 48 hrs by SRB assay; type: functional
MCF7 [7] = assay: Growth inhibition of human MCF7 cells incubated for 48 hrs by SRB assay; type: functional
SF-268 = assay: Growth inhibition of human SF-268 cells incubated for 48 hrs by SRB assay; type: functional
[8] = Antioxidant activity assessed as ROS scavenging activity relative to control; type: functional; conditions: dose or concentration not given here
Bacillus subtilis [9] = assay: Antibacterial activity against Bacillus subtilis ATCC 6633 assessed as zone of inhibition incubated for 48 hrs by agar diffusion method; type: functional
Escherichia coli = assay: Antibacterial activity against Escherichia coli ATCC 35218 assessed as zone of inhibition incubated for 48 hrs by agar diffusion method; type: functional
Candida albicans = assay: Antifungal activity against Candida albicans assessed as zone of inhibition; type: functional
Arthroderma pannicola = assay: Antifungal activity against Arthroderma pannicola assessed as diameter of zone of inhibition; type: functional
[10] = Antioxidant activity assessed as DPPH radical scavenging activity; type: functional
[11] = Inhibition of Alpha-amylase (unknown origin); parameters: species or system Homo sapiens
Alpha glucosidase = Alpha glucosidase (Homo sapiens, UniProt O43451+P10253+P14410+Q2M2H8); assay: Inhibition of Alpha glucosidase (unknown origin); type: protein assay
MCF7 [12] = assay: Antiproliferative activity against human MCF7 cells; type: functional, cell-based
Rattus norvegicus = assay: Anti-inflammatory activity against carrageenan-induced paw edema in Albino rat assessed as inhibition of paw edema at 50 mg/kg, po relative to control; type: functional; parameters: scale not given: the % may be the effect or the level left
Glucagon receptor [13] = molecular target: T2, Glucagon receptor (Homo sapiens, UniProt P47871); assay: Antagonist activity at wild type human GCGR transfected in HEK293T cells assessed as intracellular cAMP accumulation incubated for 60 mins by FRET assay; type: functional, cell-based
T2 sequence (P47871 whole entry): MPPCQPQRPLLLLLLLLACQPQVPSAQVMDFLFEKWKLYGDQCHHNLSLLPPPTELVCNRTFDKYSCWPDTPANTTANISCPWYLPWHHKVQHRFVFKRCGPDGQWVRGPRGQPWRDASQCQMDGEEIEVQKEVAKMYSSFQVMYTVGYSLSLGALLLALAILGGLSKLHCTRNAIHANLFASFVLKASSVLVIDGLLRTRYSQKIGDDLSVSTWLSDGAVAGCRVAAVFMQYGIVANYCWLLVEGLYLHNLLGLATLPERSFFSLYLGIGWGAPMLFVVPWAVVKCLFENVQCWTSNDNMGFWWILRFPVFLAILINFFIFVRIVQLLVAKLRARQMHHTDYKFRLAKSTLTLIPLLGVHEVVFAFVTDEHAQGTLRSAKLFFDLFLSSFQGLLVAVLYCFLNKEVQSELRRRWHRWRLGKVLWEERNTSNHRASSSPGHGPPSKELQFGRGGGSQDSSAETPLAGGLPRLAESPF

Glucagon receptor [14] = molecular target: T2, Glucagon receptor; assay: Antagonist activity at wild type human GCGR
[15] = Half life in human, iv; type: ADME
Mus musculus = assay: Anti-diabetic activity against 16 hrs fasted KK/Ay mouse assessed as reduced blood glucose level at 2g/kg, po measured after 2 hrs by oral pyruvate tolerance test; type: functional
[16] = Inhibition of urease (unknown origin)
[17] = molecular target: Amine oxidase [flavin-containing] B (Homo sapiens, UniProt P27338); assay: Inhibition of human MAO-B measured after 25 mins by Amplex Red reagent based fluorescence analysis
Sequence of Amine oxidase [flavin-containing] B (P27338 whole entry): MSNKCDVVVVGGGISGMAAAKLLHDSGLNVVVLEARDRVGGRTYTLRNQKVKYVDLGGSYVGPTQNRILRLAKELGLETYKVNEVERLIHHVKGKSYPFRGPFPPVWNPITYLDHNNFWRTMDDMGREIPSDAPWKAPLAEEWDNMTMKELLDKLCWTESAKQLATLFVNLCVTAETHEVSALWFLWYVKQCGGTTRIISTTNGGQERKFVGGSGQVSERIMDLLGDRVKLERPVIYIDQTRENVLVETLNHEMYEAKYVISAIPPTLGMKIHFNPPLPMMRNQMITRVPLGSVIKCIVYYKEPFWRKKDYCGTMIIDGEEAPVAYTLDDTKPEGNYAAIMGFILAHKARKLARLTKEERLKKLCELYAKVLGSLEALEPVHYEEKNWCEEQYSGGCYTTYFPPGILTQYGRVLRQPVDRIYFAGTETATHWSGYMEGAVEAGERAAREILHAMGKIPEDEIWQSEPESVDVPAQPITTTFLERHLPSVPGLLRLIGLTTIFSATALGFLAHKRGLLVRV

[18] = Antioxidant activity assessed as DPPH radical scavenging activity at 10 uM incubated for 30 mins by absorbance based assay relative to control; type: functional
dsRNA = assay: Inhibition of double stranded RNA (unknown origin); type: nucleic-acid assay
[19] = molecular target: Amine oxidase [flavin-containing] A (Homo sapiens, UniProt P21397); assay: Inhibition of human MAO-A measured after 25 mins by Amplex Red reagent based fluorescence analysis
Sequence of Amine oxidase [flavin-containing] A (P21397 whole entry): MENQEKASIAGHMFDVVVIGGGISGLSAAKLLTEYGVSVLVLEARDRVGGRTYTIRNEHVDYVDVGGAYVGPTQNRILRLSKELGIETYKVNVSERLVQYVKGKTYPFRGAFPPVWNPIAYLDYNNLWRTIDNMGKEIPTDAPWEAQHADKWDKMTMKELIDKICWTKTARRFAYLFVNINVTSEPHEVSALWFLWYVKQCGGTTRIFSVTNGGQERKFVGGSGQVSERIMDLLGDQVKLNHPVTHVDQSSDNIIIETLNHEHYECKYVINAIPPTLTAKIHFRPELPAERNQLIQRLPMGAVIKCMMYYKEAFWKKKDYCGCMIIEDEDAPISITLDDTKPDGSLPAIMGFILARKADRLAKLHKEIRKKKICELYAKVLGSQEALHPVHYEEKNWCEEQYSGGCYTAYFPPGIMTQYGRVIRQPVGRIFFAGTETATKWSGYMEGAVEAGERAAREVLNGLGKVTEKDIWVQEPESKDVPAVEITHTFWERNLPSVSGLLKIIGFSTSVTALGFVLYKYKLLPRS

Leishmania major = assay: Antileishmanial activity against Leishmania major promastigotes MHOM/IL/80/Friedlin expressing firefly luciferase infected in rhesus monkey LLC-MK2 cells assessed as reduction in parasite growth incubated for 72 hrs by luciferase based luminescence analysis; type: functional, organism-based; conditions: LLC-MK2, 72 h

## COc1cccc2c1C(=O)c1c(O)c3c(c(O)c1C2=O)C[C@@](O)(C(=O)CO)C[C@@H]3O[C@H]1C[C@H](N)[C@H](O)[C@H](C)O1 [DOXORUBICIN]
PC-3
  IC50: 700 nM
MDA-MB-231
  IC50: 980 nM
A549
  IC50: 700 nM

## Cc1ccc([C@@H]2O[C@H](CO)[C@@H](O)[C@H](O)[C@H]2O)cc1Cc1ccc(-c2ccc(F)cc2)s1 [CANAGLIFLOZIN ANHYDROUS]
[1]
  half-life: 10.6 h

## COc1ccc(/C=C2\SC(=S)N(NC(=O)c3sc4ccccc4c3Cl)C2=O)cc1OC
[2]
  IC50: 2330 nM

## Clc1c(-c2nnc(CNc3ccccc3)o2)sc2ccccc12
Bacillus subtilis [3]
  inhibition zone (IZ): 16 mm
Staphylococcus aureus
  inhibition zone (IZ): 15 mm

## O=C(/C=C/c1cccs1)c1ccc(OCCCCBr)cc1
Acetylcholinesterase
  IC50: 420 nM

## Cc1c(NC(=O)Nc2ccc(OC(F)(F)F)cc2)sc2ccccc12
[4]
  IC50: 11.3 nM
[5]
  IC50: 46.6 nM

## Cc1ccsc1C(=CCCN1CCC[C@@H](C(=O)O)C1)c1sccc1C [TIAGABINE]
[6]
  half-life: 7 h

## CCOC(=O)c1cc(C(=O)N/N=C(/C)[C@H]2CC[C@H]3[C@@H]4CC=C5C[C@@H](O)CC[C@]5(C)[C@H]4CC[C@]23C)c(Nc2ccccc2)s1
NCI-H460
  GI50: 10 nM
MCF7 [7]
  GI50: 10 nM
SF-268
  GI50: 30 nM

## CCOC(=O)c1c(NC(=O)c2c(NC(=O)CC#N)sc3c2CCC3)sc2c1CCCC2
[8]
  inhibition: 64.1%

## O=c1[nH]c(-c2sc3ccccc3c2Cl)nc2ccccc12
Bacillus subtilis [9]
  inhibition zone (IZ): 16 mm
Escherichia coli
  inhibition zone (IZ): 12 mm

## O=c1c2ccccc2nc(-c2sc3ccccc3c2Cl)n1-c1ccc([N+](=O)[O-])cc1
Candida albicans
  inhibition zone (IZ): 17 mm
Arthroderma pannicola
  inhibition zone (IZ): 17 mm

## COc1cccc(NC(=O)Cn2cc(CN3CNc4sccc4C3=O)nn2)c1
[10]
  IC50: 30.16 µg/mL

## COc1ccc(CNC(=O)Nc2sc3c(c2C#N)CCCC3)c(OC)c1
[11]
  IC50: 30400 nM
Alpha glucosidase
  IC50: 590 nM

## Nc1sc2c(c1C(=O)Nc1cnc3ccccc3c1)CCCC2
MCF7 [12]; Homo sapiens, MCF7, read-out: IC50
  IC50: 33100 nM

## N#Cc1c(-c2ccc(N3CCOCC3)cc2)csc1N
Rattus norvegicus
  Activity: 48.94%

## COc1cc(/C=C/C(=O)c2cc3ccccc3s2)cc(OC)c1O
[10]; read-out: IC50
  IC50: 6000 nM

## O=C(CSc1nnc(-c2sc3ccccc3c2Cl)[nH]1)c1ccc(F)cc1
Bacillus subtilis [3]
  inhibition zone (IZ): 16 mm
Staphylococcus aureus
  inhibition zone (IZ): 15 mm

## Cc1cc(Cl)ccc1-c1ccc(NC(=O)C(Cc2ccc(C(=O)NCCS(=O)(=O)O)s2)c2ccc(-c3ccc(OC(F)(F)F)cc3)cc2)cc1 (centres undefined)
Glucagon receptor [13]
  IC50: 4400 nM
Glucagon receptor [14]
  IC50: 6100 nM

## COc1ccsc1CNCC[C@@]1(c2ccccn2)CCOC2(CCCC2)C1 [OLICERIDINE]
[15]
  half-life: 1.3 h

## CO[C@@]1(NC(=O)Cc2cccs2)C(=O)N2C(C(=O)O)=C(COC(N)=O)CS[C@@H]21 [CEFOXITIN]
[15]
  half-life: 0.683 h

## O=C(Nc1nc(-c2cc(Cl)cs2)c(N2CCN(C3CCCCC3)CC2)s1)c1cnc(N2CCC(C(=O)O)CC2)c(Cl)c1 [AVATROMBOPAG]
[6]
  half-life: 19 h

## O=C(O[C@H]1C[N+]2(CCCOc3ccccc3)CCC1CC2)C(O)(c1cccs1)c1cccs1
[6]
  half-life: 24 h

## Cc1cc(C2=NO[C@@](c3cc(Cl)c(Cl)c(Cl)c3)(C(F)(F)F)C2)sc1C(=O)NCC(=O)NCC(F)(F)F [LOTILANER]
[6]
  half-life: 11 h

## O=C(C[S+]([O-])C(F)(F)F)c1cc2ccccc2s1 (centres undefined)
Mus musculus
  Activity: <10 mmol/L

## Oc1ccc(Nc2nnnc3sc4c(c23)CCC4)cc1
MCF7 [12]; mcf7
  IC50: 38730 nM

## Cc1nc2ccc(CN(C)c3ccc(C(=O)N[C@@H](CCC(=O)O)C(=O)O)s3)cc2c(=O)[nH]1 [RALTITREXED]
[6]
  half-life: 192 h

## Cc1ccc2c(c1)n(CN1CCN(c3ccccc3)CC1)c(=O)n2CN1CCN(c2ccccc2)CC1
[16]
  IC50: 110 nM

## O=c1c2ccccc2nc(-c2sc3ccccc3c2Cl)n1-c1ccc(F)cc1
Candida albicans
  inhibition zone (IZ): 14 mm
Arthroderma pannicola
  inhibition zone (IZ): 14 mm

## CN1C(C(=O)Nc2ccccn2)=C(O)c2sccc2S1(=O)=O [TENOXICAM]
[6]
  half-life: 72 h

## Cc1cc(Cl)ccc1-c1ccc(NC(=O)C(Cc2ccc(C(=O)NCCS(=O)(=O)O)s2)c2ccc(-c3ccc(C(C)(C)C)cc3)cc2)cc1 (centres undefined)
Glucagon receptor [13]
  IC50: 14400 nM
Glucagon receptor [14]
  IC50: 4400 nM

## CONC(=O)Nc1ccc(-c2sc3c(c2CN(C)C)c(=O)n(-c2ccc(OC)nn2)c(=O)n3Cc2c(F)cccc2F)cc1 [RELUGOLIX]
[6]
  half-life: 25 h

## Cc1ccc(-c2cc(C(F)(F)F)nn2-c2ccc(S(N)(=O)=O)cc2)cc1 [CELECOXIB]
[2]
  IC50: 5640 nM

## C/C(=N\N=C1/CS(=O)(=O)N(C)c2ccccc21)c1ccc(Br)s1
[17]
  IC50: 1030 nM

## N#Cc1c(-n2c(N)c(C#N)c(N)c(/N=N/c3ccccc3)c2=O)sc2c1CCCC2
NCI-H460
  GI50: 8300 nM
MCF7 [7]
  GI50: 2000 nM
SF-268
  GI50: 4000 nM

## COc1ccc2c3ccnc(C)c3n(CC3CC(c4cccs4)=NO3)c2c1 (centres undefined)
[2]
  IC50: 29200 nM

## CC(=O)c1ccc(NC(=O)c2sc(Nc3ccccc3)c(C(=O)Nc3ccccc3)c2N)cc1
[18]
  inhibition: 62%

## N#Cc1c(N)sc(C(=O)NC2=NN=C(O)/C2=C(\C=C\c2ccccc2)c2ccccc2)c1N
[4]
  IC50: 320 nM
[5]
  IC50: 320 nM

## COc1ccc2c(c1)c(CC(=O)O)c(C)n2C(=O)c1ccc(Cl)cc1 [INDOMETHACIN]
Rattus norvegicus
  Activity: 47.73%

## CC(C(=O)O)c1ccc(C(=O)c2ccccc2)s1 (centres undefined) [TIAPROFENIC ACID]
[6]
  half-life: 1.5 h

## CNCC[C@H](Oc1cccc2ccccc12)c1cccs1 [DULOXETINE]
[6]
  half-life: 12 h

## Clc1ccc(C2CC(c3ccc(Cl)s3)=NN2c2ccccc2)cc1 (centres undefined)
dsRNA
  IC50: 11000 nM

## CC(=O)CC(=O)c1cc2ccccc2s1
Mus musculus
  Activity: <15.6 mmol/L

## COc1cc2ncn(-c3cc(OCc4ccccc4C(F)(F)F)c(C(N)=O)s3)c2cc1OC [GW843682X]
[2]
  IC50: 10000 nM

## C/C(=N\N=C1/CS(=O)(=O)N(C)c2ccccc21)c1sccc1Cl
[19]
  IC50: 1040 nM

## O=c1c2ccccc2nc(-c2sc3ccccc3c2Cl)n1O
Bacillus subtilis [9]
  inhibition zone (IZ): 15 mm
Escherichia coli
  inhibition zone (IZ): 16 mm

## Cc1cc(=O)oc2c(/C=N/NC(=O)c3sc4ccccc4c3Cl)c(O)ccc12
[18]
  inhibition: 50%

## Cc1ccc(NCc2ccc(CNc3ccc(C)cc3)o2)cc1
PC-3
  IC50: 1030 nM
MDA-MB-231
  IC50: 880 nM
A549
  IC50: 680 nM

## CCOC(=O)c1c(NC(=O)c2cccc(C(F)(F)F)c2F)sc2c1CC(C)(C)NC2(C)C
Leishmania major
  EC50: 90 nM

## CC(=O)Oc1cc2c(s1)CCN(C(C(=O)C1CC1)c1ccccc1F)C2 (centres undefined)
[1]
  half-life: 7.4 h

## COC1=C(Nc2sc3c(c2C(N)=O)CCCC3)C(=O)c2ccccc2C1=O
[8]
  inhibition: 96%
